By Emax is commonly meant the greatest response seen or fitted, relative to the assay's reference. As a reminder, the EC50 is the midpoint of the concentration-response curve.

Type in all cases: cell-based
The target of one test is T1, hGIPR (Homo sapiens, UniProt P48546).
T1 construct: expressed in transfected cells
T1 sequence (P48546 22-466): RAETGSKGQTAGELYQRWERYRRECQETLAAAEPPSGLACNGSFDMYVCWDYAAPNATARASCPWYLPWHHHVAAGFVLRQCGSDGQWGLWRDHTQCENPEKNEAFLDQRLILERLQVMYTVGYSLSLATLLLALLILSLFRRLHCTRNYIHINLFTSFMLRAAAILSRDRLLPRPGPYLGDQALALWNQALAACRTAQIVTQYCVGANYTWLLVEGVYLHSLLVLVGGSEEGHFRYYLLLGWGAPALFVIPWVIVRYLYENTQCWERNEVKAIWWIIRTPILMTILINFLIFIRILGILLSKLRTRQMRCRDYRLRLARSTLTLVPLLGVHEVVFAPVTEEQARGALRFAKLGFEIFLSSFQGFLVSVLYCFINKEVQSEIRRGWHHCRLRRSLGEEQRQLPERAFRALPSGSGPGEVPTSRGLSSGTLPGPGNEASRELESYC
As to the kind of experiment: Functional cAMP formation (HTRF) in HEK-293 clonal cells expressing hGIPR, 0.1% bovine casein, without or with 1.0% human serum albumin. A digest of the protocol:
(§1)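 Cells were stimulated with peptide for 30 min at 37° C, then lysed in buffer carrying cAMP-d2 and anti-cAMP Eu3+-cryptate for a competitive HTRF read after at least 60 min at room temperature. The 665/620 nm ratio was converted to nM cAMP against a standard curve.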

The target in the next test is T2, hGCGR (Homo sapiens, UniProt P47871).
T2 construct: expressed in transfected cells
As to the kind of experiment: Functional cAMP formation (HTRF) in HEK-293 clonal cells expressing hGCGR, 0.1% bovine casein, without or with 1.0% human serum albumin. A digest of the protocol: as §1

The target of the next test is hGLP-1R (Homo sapiens, UniProt P43220). Briefly: Functional cAMP formation (HTRF) in HEK-293 clonal cells expressing hGLP-1R, 0.1% bovine casein, without or with 1.0% human serum albumin. Set-up: expressed in transfected cells. In outline: as §1
A general note: cAMP levels reflect the balance of adenylyl cyclase and phosphodiesterase activity.

Where [1] appears, read: 0.1% bovine casein and 1.0% human serum albumin, 37° C., geometric mean, read-out: hGIPR EC50, nM (SEM, n).
The mark [2] stands for this setting: HEK293, 0.1% bovine casein and 1.0% human serum albumin, 37° C., percent of maximal response to GIP(1-42)NH2, read-out: hGIPR Emax, % ± SEM.
The mark [3] stands for this setting: 0.1% bovine casein and 1.0% human serum albumin, 37° C., geometric mean, read-out: hGCGR EC50, nM (SEM, n).
Where [4] appears, read: cAMP, incubated at 37° C., 0.1% bovine casein (no human serum albumin), geometric mean, read-out: hGCGR EC50, nM (SEM, n).
[5] abbreviates: 0.1% bovine casein and 1.0% human serum albumin, 37° C., geometric mean, read-out: hGLP-1R EC50, nM (SEM, n).
The mark [6] stands for this setting: HEK293, 0.1% bovine casein and 1.0% human serum albumin, 37° C., percent of maximal response to GLP-1(7-36)NH2, read-out: hGLP-1R Emax, % ± SEM.

Read-outs that look alike come from different tables or passages of the source. A value given as a limit tells only on which side of the number the result lay.

T2 sequence (P47871 26-477): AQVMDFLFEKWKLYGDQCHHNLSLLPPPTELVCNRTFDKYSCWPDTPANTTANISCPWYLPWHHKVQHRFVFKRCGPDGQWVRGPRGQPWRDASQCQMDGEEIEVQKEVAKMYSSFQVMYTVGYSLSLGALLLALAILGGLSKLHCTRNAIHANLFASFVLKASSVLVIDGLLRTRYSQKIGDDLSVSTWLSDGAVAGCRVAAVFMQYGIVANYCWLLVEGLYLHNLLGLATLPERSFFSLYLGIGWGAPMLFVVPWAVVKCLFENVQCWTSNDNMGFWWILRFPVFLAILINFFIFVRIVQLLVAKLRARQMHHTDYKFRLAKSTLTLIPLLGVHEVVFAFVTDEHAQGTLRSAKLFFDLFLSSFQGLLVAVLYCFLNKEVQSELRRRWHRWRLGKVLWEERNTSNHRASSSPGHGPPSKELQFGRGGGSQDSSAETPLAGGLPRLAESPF
hGLP-1R, sequence (P43220 24-463): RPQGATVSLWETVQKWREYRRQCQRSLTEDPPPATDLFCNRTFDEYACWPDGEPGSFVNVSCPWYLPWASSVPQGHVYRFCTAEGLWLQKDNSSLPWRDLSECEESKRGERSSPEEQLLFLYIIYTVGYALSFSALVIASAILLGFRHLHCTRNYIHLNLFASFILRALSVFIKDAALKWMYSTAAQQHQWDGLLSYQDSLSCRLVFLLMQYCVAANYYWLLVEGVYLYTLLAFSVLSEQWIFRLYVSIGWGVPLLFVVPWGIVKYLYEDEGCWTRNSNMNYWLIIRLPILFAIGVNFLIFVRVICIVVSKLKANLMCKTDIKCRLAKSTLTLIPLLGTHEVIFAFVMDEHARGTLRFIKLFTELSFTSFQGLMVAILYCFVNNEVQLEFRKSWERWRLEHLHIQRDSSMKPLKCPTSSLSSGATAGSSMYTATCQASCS

`CC[C@H](C)[C@H](NC(=O)[C@H](CC(C)C)NC(=O)[C@](C)(Cc1ccc(O)cc1)NC(=O)[C@H](CCCCNC(=O)COCCOCCNC(=O)COCCOCCNC(=O)CC[C@H](NC(=O)CCCCCCCCCOc1ccc(C(=O)O)cc1)C(=O)O)NC(=O)[C@@H](NC(=O)[C@H](Cc1ccccc1)NC(=O)[C@H](CCC(=O)O)NC(=O)C(C)(C)NC(=O)[C@H](CCC(N)=O)NC(=O)[C@H](C)NC(=O)[C@H](CCC(N)=O)NC(=O)[C@H](CCCN)NC(=O)[C@H](CC(=O)O)NC(=O)[C@H](CC(C)C)NC(=O)[C@](C)(CC(C)C)NC(=O)[C@@H](NC(=O)C(C)(C)NC(=O)[C@H](Cc1ccc(O)cc1)NC(=O)[C@H](CC(=O)O)NC(=O)[C@H](CO)NC(=O)[C@@H](NC(=O)[C@](C)(Cc1ccccc1F)NC(=O)[C@@H](NC(=O)CNC(=O)[C@H](CCC(=O)O)NC(=O)C(C)(C)NC(=O)[C@@H](N)Cc1ccc(O)cc1)[C@@H](C)O)[C@@H](C)O)[C@@H](C)CC)[C@@H](C)CC)C(=O)N[C@@H](CCCCNC(=O)COCCOCCNC(=O)COCCOCCNC(=O)CC[C@H](NC(=O)CCCCCCCCCOc1ccc(C(=O)O)cc1)C(=O)O)C(=O)NCC(=O)NCC(=O)N1CCC[C@H]1C(=O)N[C@@H](CO)C(=O)N[C@@H](CO)C(=O)NCC(=O)N[C@@H](C)C(=O)N1CCC[C@H]1C(=O)N1CCC[C@H]1C(=O)N1CCC[C@H]1C(=O)N[C@@H](CO)C(N)=O` [Example 402]: the maximum response (Emax) on hGIPR (HEK293, read-out: hGIPR Emax, % ± SEM, cAMP, 37° C., 0.1% bovine casein and 1.0% human serum albumin, percent of maximal response to GIP(1-42)NH2) is 84.5%; on hGIPR (HEK293, read-out: hGIPR Emax, % ± SEM, cAMP, 37° C., 0.1% bovine casein, percent of maximal response to GIP(1-42)NH2, arithmetic mean), 98.9%; on hGLP-1R (HEK293, read-out: hGLP-1R Emax, % ± SEM, cAMP, 37° C., 0.1% bovine casein and 1.0% human serum albumin, percent of maximal response to GLP-1(7-36)NH2), 110%. In addition, the 50% effective concentration (EC50) is 0.0132 nM on hGIPR (hGIPR EC50, nM (SEM, n), cAMP, 37° C., 0.1% bovine casein (no human serum albumin), geometric mean); 1.11 nM on hGIPR (hGIPR EC50, nM (SEM, n), cAMP, 37° C., 0.1% bovine casein and 1.0% human serum albumin, geometric mean (SEM, n)); greater than 9950 nM on hGCGR (hGCGR EC50, nM (SEM, n), cAMP, 37° C., 0.1% bovine casein (no human serum albumin), geometric mean); greater than 9950 nM at hGCGR (hGCGR EC50, nM (SEM, n), cAMP, 37° C., 0.1% bovine casein and 1.0% human serum albumin, geometric mean (SEM, n)); 0.221 nM at hGLP-1R (hGLP-1R EC50, nM (SEM, n), cAMP, 37° C., 0.1% bovine casein (no human serum albumin), geometric mean); 13.5 nM on hGLP-1R (hGLP-1R EC50, nM (SEM, n), cAMP, 37° C., 0.1% bovine casein and 1.0% human serum albumin, geometric mean (SEM, n)).

In the case of `CC[C@H](C)[C@H](NC(=O)[C@H](CCCN)NC(=O)[C@H](CC(=O)O)NC(=O)[C@H](CC(C)C)NC(=O)[C@](C)(CC(C)C)NC(=O)[C@@H](NC(=O)C(C)(C)NC(=O)[C@H](Cc1ccc(O)cc1)NC(=O)[C@H](CC(=O)O)NC(=O)[C@H](CO)NC(=O)[C@@H](NC(=O)[C@](C)(Cc1ccccc1F)NC(=O)[C@@H](NC(=O)CNC(=O)[C@H](CCC(=O)O)NC(=O)C(C)(C)NC(=O)[C@@H](N)Cc1ccc(O)cc1)[C@@H](C)O)[C@@H](C)O)[C@@H](C)CC)C(=O)N[C@@H](C)C(=O)N[C@@H](CCC(N)=O)C(=O)NC(C)(C)C(=O)N[C@@H](CCC(=O)O)C(=O)N[C@@H](Cc1ccccc1)C(=O)N[C@H](C(=O)N[C@@H](CCCCNC(=O)COCCOCCNC(=O)COCCOCCNC(=O)CC[C@H](NC(=O)CCCCCCCCCCCCC(=O)O)C(=O)O)C(=O)N[C@@](C)(Cc1ccc(O)cc1)C(=O)N[C@@H](CC(C)C)C(=O)N[C@H](C(=O)N[C@@H](CCCCNC(=O)COCCOCCNC(=O)COCCOCCNC(=O)CC[C@H](NC(=O)CCCCCCCCCCCCC(=O)O)C(=O)O)C(=O)NCC(=O)NCC(=O)N1CCC[C@H]1C(=O)N[C@@H](CO)C(=O)N[C@@H](CO)C(=O)NCC(=O)N[C@@H](C)C(=O)N1CCC[C@H]1C(=O)N1CCC[C@H]1C(=O)N1CCC[C@H]1C(=O)N[C@@H](CO)C(N)=O)[C@@H](C)CC)[C@@H](C)CC` [Example 233], the half-maximal effective concentration (EC50) on hGIPR (setting [1]) is 6.08 nM; on hGIPR (cAMP, incubated at 37° C., 0.1% bovine casein (no human serum albumin), geometric mean, read-out: hGIPR EC50, nM (SEM, n)) it was 0.0269 nM; on hGCGR (setting [3]) it was greater than 9950 nM; at hGCGR (setting [4]), greater than 9950 nM; on hGLP-1R (setting [5]) it was 56.7 nM; at hGLP-1R (cAMP, incubated at 37° C., 0.1% bovine casein (no human serum albumin), geometric mean, read-out: hGLP-1R EC50, nM (SEM, n)), 0.604 nM. Moreover, the maximal effect (Emax) stood at 91.4% at hGIPR (setting [2]); 105% on hGIPR (HEK293, percent of maximal response to GIP(1-42)NH2, 37° C., 0.1% bovine casein, arithmetic mean, read-out: hGIPR Emax, % ± SEM); 116% on hGLP-1R (setting [6]); 111% at hGLP-1R (HEK293, percent of maximal response to GLP-1(7-36)NH2, 37° C., 0.1% bovine casein, arithmetic mean, read-out: hGLP-1R Emax, % ± SEM).

`CC[C@H](C)[C@H](NC(=O)[C@H](CC(C)C)NC(=O)[C@](C)(Cc1ccc(O)cc1)NC(=O)[C@@H](CCC(=O)O)NC(=O)[C@@H](NC(=O)[C@H](Cc1ccccc1)NC(=O)[C@H](CCCN)NC(=O)C(C)(C)NC(=O)[C@H](CCC(N)=O)NC(=O)[C@H](C)NC(=O)[C@H](CCCCNC(=O)COCCOCCNC(=O)COCCOCCNC(=O)CC[C@H](NC(=O)CCCCCCCCCCCCC(=O)O)C(=O)O)NC(=O)[C@H](CCCN)NC(=O)[C@H](CC(=O)O)NC(=O)[C@H](CC(C)C)NC(=O)[C@](C)(CC(C)C)NC(=O)[C@@H](NC(=O)[C@H](CO)NC(=O)[C@H](Cc1ccncc1)NC(=O)[C@H](CC(=O)O)NC(=O)[C@H](CO)NC(=O)[C@@H](NC(=O)[C@](C)(Cc1ccccc1F)NC(=O)[C@@H](NC(=O)CNC(=O)[C@H](CCC(=O)O)NC(=O)C(C)(C)NC(=O)[C@@H](N)Cc1ccc(O)cc1)[C@@H](C)O)[C@@H](C)O)[C@@H](C)CC)[C@@H](C)CC)C(=O)N[C@@H](CCC(=O)O)C(=O)NCC(=O)NCC(=O)N[C@@H](CCCCNC(=O)COCCOCCNC(=O)COCCOCCNC(=O)CC[C@H](NC(=O)CCCCCCCCCCCCC(=O)O)C(=O)O)C(=O)N[C@@H](CO)C(=O)N[C@@H](CO)C(=O)NCC(=O)N[C@@H](C)C(=O)N1CCC[C@H]1C(=O)N1CCC[C@H]1C(=O)N1CCC[C@H]1C(=O)N[C@@H](CO)C(N)=O` [Example 150]: the EC50 at hGIPR (setting [1]) was 0.35 nM; on hGCGR (setting [3]) it was greater than 9950 nM; at hGCGR (setting [4]), greater than 9950 nM; on hGLP-1R (setting [5]), 11 nM. In addition, the maximum response (Emax) is 81.3 ± 3.18% on hGIPR (setting [2]) and 100 ± 3.8% at hGLP-1R (setting [6]).
